Test results published in PubChem BioAssay AID1963854 (Molecular Pharmacology Branch, DTP, NCI, 2024).

Tested on: 186277-243-T-J2-PDC complex spheroid viability
Experiment: Anticancer human tumor 186277-243-T-J2-PDC patient-derived colon adenocarcinoma cell line growth inhibition [POLQ]
Details: for IC50: curve of first compound; for viability, T/C: stronger effect = lower value
Protocol: Multicellular complex tumor spheroid response to Polymerase (POL) inhibitors (novobiocin, ART-558, RP6685) in combination with a variety of drugs and investigational agents in selected tumor cell lines
The POL inhibitors (novobiocin, ART-558, and RP6685) were evaluated both individually and in combination with standard of care and investigational anticancer small molecules within a complex spheroid model of solid tumors. . Complex spheroids include a stromal component modeled by human endothelial cells (HUVEC) and fibroblasts modeled by human mesenchymal stem cells (MSCs). The concentration ranges selected for each drug and investigational agent were based upon clinically achievable concentrations if the clinical Cmax of the agent was known.
Compounds. The drugs and investigational agents: novobiocin (NSC847541), ART-558 (NSC835418), RP-6685 (NSC848927), peposertib (NSC802822), ceralasertib (NSC780249), elimusertib (NSC800525), camonsertib (NSC841442), AZD-1390 (NSC803789), olaparib (NSC753686), talazoparib (NSC767125), rucaparib (NSC756644), sotorasib (NSC818433), MRTX-1133 (NSC836407), SN-38 (NSC673596), topotecan (NSC609699), epotoside (NSC141540), doxorubicin (NSC123127), gemcitabine (NSC613327), 5-fluorouracil (NSC19893), paclitaxel (NSC125973), vemurafenib (NSC761431), MSA-2 (NSC828583), SN-011 (NSC837082), adavosertib (NSC754352), prexasertib (NSC758257), carboplatin (NSC241240) and oxaliplatin (NSC266046), were obtained from the National Cancer Institute (NCI) Developmental Therapeutics Program Chemical Repository (21). The FDA-approved anticancer drug set is available from the Developmental Therapeutics Program at https://dtp.cancer.gov/organization/dscb/obtaining/. […] The stock solutions were prepared in dimethyl sulfoxide (DMSO, Sigma-Aldrich, St. Louis, MO, cat. D2650), except for the platinum compounds which were prepared in saline (Quality Biological, Gaithersburg, MD, cat. 114-055-101), at 800-fold the tested concentration and stored at -70 degrees C prior to their use. All drugs and investigational agents were tested over a range starting from a high concentration at or near the clinical Cmax and decreasing in half-log increments. If the clinical Cmax for an agent had not been determined, the highest concentration tested was 10 microM, except for SN-38, which was tested at a high concentration of 1 microM.
Cell Culture. All cells were maintained in an incubator at 37 degrees C and 5% CO2 with 95% humidity. The PDC lines were cultured according to standard operating procedures established by the NCI PDMR (https://pdmr.cancer.gov). Table 3 of the manuscript, lists the cell lines along with the number of the three cell types plated to form the mct-spheroids and media for tumor cell growth. After thawing, all PDC lines, except 997537-175-T-J1-PDC and 415267-285-R-J2-PDC, were cultured in Matrigel-coated flasks prepared with a working solution of 1X Ham's F-12 nutrient mix, without supplementation (Thermo Fisher Scientific, cat. 11765054), 100 U/mL penicillin-streptomycin (Thermo Fisher Scientific, cat. 15140122), and 2.5% Matrigel (Corning Inc., Corning, NY, cat. 354248) for the first three passages. The two PDC lines 997537-175-T-J1-PDC and 415267-285-R-J2-PDC were cultured on uncoated flasks. The 857933-349-R-J2-PDC line was cultured in 6C/Colon 1B media containing advanced DMEM/F-12 (Thermo Fisher Scientific, cat. 12634028), 10 mM HEPES (Thermo Fisher Scientific, cat. 15630080), 1X GlutaMAX supplement (Thermo Fisher Scientific, cat. 35050061), 0.1 mg/mL primocin (InvivoGen, San Diego, CA, cat. ant-pm-2), 10% defined fetal bovine serum, heat inactivated (HyClone Laboratories Inc., Logan, UT, cat. SH30070.03HI), 50% L-WRN conditioned media (ATCC, cat. CRL-3276), 1.25 mM N-Acetyl-L-cysteine (Sigma-Aldrich, cat. A9165), 10 mM nicotinamide (Sigma-Aldrich, cat. N0636), 1X B-27 supplement (Thermo Fisher Scientific, cat. 17504044), 1X N-2 supplement (Thermo Fisher Scientific, cat. […]

[1] = second compound 0.0316 µM, first compound 0.0316 µM
[2] = second compound 0.0316 µM, first compound 0.1 µM
[3] = second compound 0.1 µM, first compound 0.0316 µM
[4] = second compound 0.1 µM, first compound 0.1 µM
[5] = second compound 0.316 µM, first compound 0.0316 µM
[6] = second compound 0.316 µM, first compound 0.1 µM
[7] = second compound 1 µM, first compound 0.0316 µM
[8] = second compound 1 µM, first compound 0.1 µM
[9] = second compound 3.16 µM, first compound 0.0316 µM
[10] = second compound 3.16 µM, first compound 0.1 µM
[11] = second compound 10 µM, first compound 0.0316 µM
[12] = second compound 10 µM, first compound 0.1 µM
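Further: spheroids exposed to compounds for seven days.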
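Wherever viability, T/C is given: 100% = DMSO vehicle control viability.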

SMILES: Cn1ncnc1[C@H]1c2n[nH]c(=O)c3cc(F)cc(c23)N[C@@H]1c1ccc(F)cc1 + Cc1cccc(N(C)C(=O)C2C(O)CCN2c2nc(C)cc(C(F)(F)F)c2C#N)c1
- IC50 (second compound 0.0316 µM): > 0.1 µM
- IC50 (second compound 0.1 µM): > 0.1 µM
- IC50 (second compound 0.316 µM): > 0.1 µM
- IC50 (second compound 1 µM): > 0.1 µM
- IC50 (second compound 3.16 µM): > 0.1 µM
- IC50 (second compound 10 µM): > 0.1 µM
- viability, T/C (second compound 0.0316 µM, first compound 0.000316 µM): 101%
- viability, T/C (second compound 0.0316 µM, first compound 0.001 µM): 102%
- viability, T/C (second compound 0.0316 µM, first compound 0.00316 µM): 104%
- viability, T/C (second compound 0.0316 µM, first compound 0.01 µM): 106%
- viability, T/C [1]: 118%
- viability, T/C [2]: 120%
- viability, T/C (second compound 0.1 µM, first compound 0.000316 µM): 87.9%
- viability, T/C (second compound 0.1 µM, first compound 0.001 µM): 99.4%
- viability, T/C (second compound 0.1 µM, first compound 0.00316 µM): 113%
- viability, T/C (second compound 0.1 µM, first compound 0.01 µM): 106%
- viability, T/C [3]: 113%
- viability, T/C [4]: 119%
- viability, T/C (second compound 0.316 µM, first compound 0.000316 µM): 90.3%
- viability, T/C (second compound 0.316 µM, first compound 0.001 µM): 92.6%
- viability, T/C (second compound 0.316 µM, first compound 0.00316 µM): 102%
- viability, T/C (second compound 0.316 µM, first compound 0.01 µM): 115%
- viability, T/C [5]: 145%
- viability, T/C [6]: 122%
- viability, T/C (second compound 1 µM, first compound 0.000316 µM): 89%
- viability, T/C (second compound 1 µM, first compound 0.001 µM): 105%
- viability, T/C (second compound 1 µM, first compound 0.00316 µM): 107%
- viability, T/C (second compound 1 µM, first compound 0.01 µM): 117%
- viability, T/C [7]: 119%
- viability, T/C [8]: 111%
- viability, T/C (second compound 3.16 µM, first compound 0.000316 µM): 101%
- viability, T/C (second compound 3.16 µM, first compound 0.001 µM): 106%
- viability, T/C (second compound 3.16 µM, first compound 0.00316 µM): 111%
- viability, T/C (second compound 3.16 µM, first compound 0.01 µM): 113%
- viability, T/C [9]: 103%
- viability, T/C [10]: 105%
- viability, T/C (second compound 10 µM, first compound 0.000316 µM): 99.5%
- viability, T/C (second compound 10 µM, first compound 0.001 µM): 92.8%
- viability, T/C (second compound 10 µM, first compound 0.00316 µM): 95.8%
- viability, T/C (second compound 10 µM, first compound 0.01 µM): 116%
- viability, T/C [11]: 113%
- viability, T/C [12]: 113%

SMILES: COc1ccc([C@@H](O)c2cc(-c3ncnc4cc(N5CCOCC5)ccc34)c(F)cc2Cl)nn1 + Nc1ccc(C#CCN(C(=O)Cc2ncc(C(F)(F)F)cc2C(F)(F)F)c2ccc(F)cc2)nn1
- IC50 (second compound 0.0316 µM): > 10 µM
- IC50 (second compound 0.1 µM): > 10 µM
- IC50 (second compound 0.316 µM): > 10 µM
- IC50 (second compound 1 µM): > 10 µM
- IC50 (second compound 3.16 µM): > 10 µM
- IC50 (second compound 10 µM): > 10 µM
- viability, T/C [1]: 104%
- viability, T/C [2]: 109%
- viability, T/C (second compound 0.0316 µM, first compound 0.316 µM): 110%
- viability, T/C (second compound 0.0316 µM, first compound 1 µM): 103%
- viability, T/C (second compound 0.0316 µM, first compound 3.16 µM): 90.2%
- viability, T/C (second compound 0.0316 µM, first compound 10 µM): 58.5%
- viability, T/C [3]: 97.6%
- viability, T/C [4]: 106%
- viability, T/C (second compound 0.1 µM, first compound 0.316 µM): 99.5%
- viability, T/C (second compound 0.1 µM, first compound 1 µM): 96.3%
- viability, T/C (second compound 0.1 µM, first compound 3.16 µM): 101%
- viability, T/C (second compound 0.1 µM, first compound 10 µM): 67.7%
- viability, T/C [5]: 99.3%
- viability, T/C [6]: 95.6%
- viability, T/C (second compound 0.316 µM, first compound 0.316 µM): 107%
- viability, T/C (second compound 0.316 µM, first compound 1 µM): 108%
- viability, T/C (second compound 0.316 µM, first compound 3.16 µM): 101%
- viability, T/C (second compound 0.316 µM, first compound 10 µM): 60%
- viability, T/C [7]: 114%
- viability, T/C [8]: 101%
- viability, T/C (second compound 1 µM, first compound 0.316 µM): 104%
- viability, T/C (second compound 1 µM, first compound 1 µM): 95.4%
- viability, T/C (second compound 1 µM, first compound 3.16 µM): 98.3%
- viability, T/C (second compound 1 µM, first compound 10 µM): 63.8%
- viability, T/C [9]: 111%
- viability, T/C [10]: 105%
- viability, T/C (second compound 3.16 µM, first compound 0.316 µM): 97.6%
- viability, T/C (second compound 3.16 µM, first compound 1 µM): 116%
- viability, T/C (second compound 3.16 µM, first compound 3.16 µM): 99.7%
- viability, T/C (second compound 3.16 µM, first compound 10 µM): 63.2%
- viability, T/C [11]: 104%
- viability, T/C [12]: 90.6%
- viability, T/C (second compound 10 µM, first compound 0.316 µM): 102%
- viability, T/C (second compound 10 µM, first compound 1 µM): 114%
- viability, T/C (second compound 10 µM, first compound 3.16 µM): 111%
- viability, T/C (second compound 10 µM, first compound 10 µM): 57%
